Assay results reported in EP0857177B1, “PROCESS FOR THE PREPARATION OF A SINGLE CHAIN FV ANTIBODY FRAGMENT” (Novartis AG, priority 1995, dated 1997).
pKd: −log10 of the molar value.

System: anti-phOx-scFv (αphOx15-scFv with c-myc tag), purified monomeric, expressed in Sf9 insect cells
Assay: Surface plasmon resonance (BIAcore) measurement of the monovalent interaction between immobilised scFv and phOx
Format: binding
Details: monomeric anti-phOx-scFv amine-coupled to CM5 sensor chip (2160 RU); phOx offered as analyte phOx20.5BSA in HBS pH 7.4; BSA background RU subtracted; derived from differential RU at different phOx concentrations; error of 12.6% for the slope
Description: A second independent assay is employed to confirm the low affinity of the monovalent interaction between anti-phOx-scFv and phOx. Surface plasmon resonance signals (Kretschmann, E. and Raether, H. (1968) Z. Naturforsch. 23a, 2135-2136; Liedberg, et al., (1983) Sensors and Actuators 4, 299-304) are recorded with a BlAcore machine (Pharmacia Biosensor AB; Jönsson, et al., (1991) BioTechniques 11, 620-627; Chaiken, et al., (1992) Anal. Biochem. 201, 197-210). Purified monomeric anti-phOx-scFv at a concentration of 40 µg/ml in 5 mM maionic acid pH 6.0 / 0.05% [v/v] Tween-20 is coupled to a CM5 sensor chip using the Amine Coupling Kit (Pharmacia) as described earlier (Johnsson, et al., (1991) Anal. Biochem. 198, 268-277). Via amino groups, 2160 RU of the purified monomeric anti-phOx-scFv is immobilised to the sensor chip (i.e., about 2 ng/mm^2 chip surface; Stenberg, et al., (1991) J. Colloid Interface Sci. 143, 513-526).The activation time is adjusted to 7 min at a flow rate of 5 µl/min. For immobilisation 35 µl of the scFv sample are injected to the chip at the same flow rate. […]
Since a notable background binding of BSA to the modified chip is observed, it is indispensable to record the scFv binding events for both analytes phOx20.5BSA and BSA. […] KD can be derived from the differential RU measured at different phOx concentrations before dissociation is initiated.

Structure (SMILES): CCO/C=C1/N=C(c2ccccc2)OC1=O [phOx]
- pKd: 4.07
